Assay results from patent US20050002859A1, “COX-2-targeted imaging agents” (Vanderbilt University, priority 2003, published 2005).

Columns and labels:
[1] = target: T1, COX-2 activity in RAW 264.7 murine macrophage cell line (Mus musculus, UniProt Q05769); assay: Inhibition of COX-2 activity (PGD2 synthesis) in activated RAW264.7 macrophages; type: cell-based; conditions: read-out: IC50 for inhibition of COX-2 activity in RAW 264.7 macrophages
T1 construct: The macrophages were exposed to lipopolysaccharide and γ-interferon to induce COX-2; endogenous in cells
T1 sequence (Q05769 18-604): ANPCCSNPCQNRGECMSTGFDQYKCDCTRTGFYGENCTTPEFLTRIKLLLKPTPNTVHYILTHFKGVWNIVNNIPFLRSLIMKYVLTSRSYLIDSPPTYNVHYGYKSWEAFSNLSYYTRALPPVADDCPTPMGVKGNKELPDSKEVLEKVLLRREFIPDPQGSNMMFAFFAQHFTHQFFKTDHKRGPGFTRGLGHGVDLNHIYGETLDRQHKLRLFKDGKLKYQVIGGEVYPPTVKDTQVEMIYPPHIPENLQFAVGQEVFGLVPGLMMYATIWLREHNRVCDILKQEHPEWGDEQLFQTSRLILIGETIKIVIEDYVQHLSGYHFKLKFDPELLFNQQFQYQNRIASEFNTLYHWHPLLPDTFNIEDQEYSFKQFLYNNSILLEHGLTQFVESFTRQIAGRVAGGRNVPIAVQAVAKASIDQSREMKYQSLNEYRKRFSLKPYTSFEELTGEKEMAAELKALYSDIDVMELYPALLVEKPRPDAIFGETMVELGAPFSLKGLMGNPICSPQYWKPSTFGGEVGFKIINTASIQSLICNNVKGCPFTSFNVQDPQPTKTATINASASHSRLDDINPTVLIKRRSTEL
Description: Thus, NSAID derivatives that are identified as potentially useful in the methods described herein can be further tested using, for example, the RAW264.7 murine macrophage cell line. These cells are readily available (for example, from the American Type Culture Collection, Manassas, Va., United States of America) and are easily cultured in large numbers. They normally express low levels of COX-1 and very low to undetectable levels of COX-2. Upon exposure to bacterial lipopolysaccharide (LPS), however, COX-2 levels increase dramatically over the ensuing 24 hour period, and the cells produce PGD2 and PGE2 from endogenous arachidonic acid stores (generally, ˜1 nmol/10^7 cells total PG formation). After LPS exposure, the addition of exogenous arachidonic acid results in the formation of additional PGD2 and PGE2 as a result of metabolism by the newly synthesized COX-2.
This system provides a number of approaches for testing the inhibitory potency of COX-2-selective ligands (e.g., inhibitors). In general, following LPS activation, cells can be treated for 30 minutes with the desired concentrations of candidate derivative(s) in DMSO. ^14C-arachidonic acid can be added, and the cells can be incubated for 15 minutes at 37° C. Product formation can be assessed following extraction and TLC separation of the culture medium. Alternatively, the effects of candidate derivatives on PG synthesis from endogenous arachidonic acid can be assessed by incubating cells with desired concentrations of candidate derivatives 30 minutes prior to LPS exposure. Following a 24 hour incubation, medium can be collected and extracted, and the amount of PGD2 and/or PGE2 can be assayed by gas chromatography-mass spectrometry, liquid chromatography-mass spectrometry, or ELISA.
Inhibition of COX-2 Activity in Activated RAW264.7. Protocols for COX-2 inhibition in RAW264.7 cells have been previously described (Kalgutkar et al., 1998b). Briefly, cells (6.2×10^6 cells/T25 flask) were activated with lipopolysaccharide (1 μg/mL) and γ-interferon (10 U/mL) in serum-free DMEM for 7 hours and then treated with inhibitor (0-2 μM) for 30 minutes at 37° C. Exogenous arachidonate metabolism was determined by adding [1-^14C]-arachidonate acid (20 μM) for 15 minutes at 37° C. IC50 values are the average of two independent determinations.
The macrophages were exposed to lipopolysaccharide and γ-interferon to induce COX-2 and then treated with several concentrations of Compound 355.

[2] = target: T2, COX-2 (Homo sapiens, UniProt P35354); assay: Inhibition of purified COX-2 by NSAID derivatives (species not stated); type: biochemical; conditions: purified enzyme
T2 sequence (P35354 18-604): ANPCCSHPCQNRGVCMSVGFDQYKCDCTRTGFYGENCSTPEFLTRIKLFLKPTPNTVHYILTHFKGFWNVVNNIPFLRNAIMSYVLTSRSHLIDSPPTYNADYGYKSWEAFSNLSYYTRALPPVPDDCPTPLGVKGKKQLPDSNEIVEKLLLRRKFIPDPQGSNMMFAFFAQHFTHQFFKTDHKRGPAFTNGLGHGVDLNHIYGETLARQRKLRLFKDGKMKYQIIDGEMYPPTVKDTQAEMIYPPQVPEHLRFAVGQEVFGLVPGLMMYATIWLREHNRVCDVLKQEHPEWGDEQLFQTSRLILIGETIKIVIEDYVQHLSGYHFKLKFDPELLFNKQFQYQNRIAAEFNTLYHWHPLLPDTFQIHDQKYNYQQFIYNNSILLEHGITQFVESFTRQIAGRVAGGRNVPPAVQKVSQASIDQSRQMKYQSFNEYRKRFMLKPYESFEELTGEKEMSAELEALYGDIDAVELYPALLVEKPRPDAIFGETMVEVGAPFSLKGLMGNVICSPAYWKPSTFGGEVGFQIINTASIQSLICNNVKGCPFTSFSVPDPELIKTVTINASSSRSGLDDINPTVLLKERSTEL
Experimental: (§1) While the TLC assay described above provides considerable information, it is labor-intensive for screening large numbers of candidate NSAID derivatives. Accordingly, as an alternative, a simplified assay can be used. Incubation conditions can be essentially as described above, except all candidate derivatives are first screened at a concentration of 1 mM with a preincubation time of 30 minutes. The substrate need not be radiolabeled, and the reaction can be stopped by the addition of 2 μL of formic acid. Product formation can be quantitated by enzyme-linked immunosorbent assay (ELISA) using commercially available kits. […] Other in vitro assay methods for screening NSAID derivatives for activity (e.g., selectivity for the COX-2 enzyme) can also be used by the skilled artisan.

[3] = target: T3, COX-1 activity in uninduced macrophages (Mus musculus, UniProt P22437); assay: Inhibition of COX-1 activity in uninduced macrophages; type: cell-based, murine
T3 construct: endogenous in cells
T3 sequence (P22437 27-602): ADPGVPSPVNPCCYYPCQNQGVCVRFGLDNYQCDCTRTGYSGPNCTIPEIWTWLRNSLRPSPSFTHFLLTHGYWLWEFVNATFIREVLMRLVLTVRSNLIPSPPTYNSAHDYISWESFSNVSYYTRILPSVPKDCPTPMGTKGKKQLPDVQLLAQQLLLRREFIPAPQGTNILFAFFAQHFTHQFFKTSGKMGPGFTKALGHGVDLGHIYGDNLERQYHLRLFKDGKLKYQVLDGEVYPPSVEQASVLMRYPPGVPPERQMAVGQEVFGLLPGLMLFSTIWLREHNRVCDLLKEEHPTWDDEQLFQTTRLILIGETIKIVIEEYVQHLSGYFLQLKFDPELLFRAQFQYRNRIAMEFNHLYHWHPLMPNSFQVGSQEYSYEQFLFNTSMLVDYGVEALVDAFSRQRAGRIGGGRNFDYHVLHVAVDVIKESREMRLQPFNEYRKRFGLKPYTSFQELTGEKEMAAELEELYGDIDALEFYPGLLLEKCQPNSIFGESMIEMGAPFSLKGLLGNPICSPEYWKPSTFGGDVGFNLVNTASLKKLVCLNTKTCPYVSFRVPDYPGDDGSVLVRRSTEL

[4] = target: T4, COX-1 (Ovis aries, UniProt P05979); assay: Inhibition of COX-1 by NSAID derivatives (species not stated); type: biochemical
T4 sequence (P05979 25-600): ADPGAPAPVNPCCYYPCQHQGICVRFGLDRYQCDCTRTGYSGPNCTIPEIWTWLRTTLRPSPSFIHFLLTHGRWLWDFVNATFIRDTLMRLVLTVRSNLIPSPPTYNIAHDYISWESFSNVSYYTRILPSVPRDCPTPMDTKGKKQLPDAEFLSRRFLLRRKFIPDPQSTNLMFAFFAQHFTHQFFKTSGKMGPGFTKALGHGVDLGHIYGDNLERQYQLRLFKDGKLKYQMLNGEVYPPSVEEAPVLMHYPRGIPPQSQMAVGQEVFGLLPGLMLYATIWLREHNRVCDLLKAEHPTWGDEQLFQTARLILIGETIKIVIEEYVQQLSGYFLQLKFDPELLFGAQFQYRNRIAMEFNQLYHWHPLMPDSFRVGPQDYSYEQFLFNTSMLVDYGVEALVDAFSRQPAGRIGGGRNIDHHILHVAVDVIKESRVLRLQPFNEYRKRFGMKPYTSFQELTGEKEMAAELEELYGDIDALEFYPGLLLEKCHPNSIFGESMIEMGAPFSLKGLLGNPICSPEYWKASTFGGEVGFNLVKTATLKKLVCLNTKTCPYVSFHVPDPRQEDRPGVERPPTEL
Experimental: as §1

[5] = rat, in vivo
[6] = Metabolism by rat liver microsomes; type: in vitro ADME; conditions: 0.125 mg/mL protein
Experimental: Preliminary metabolic studies were conducted using isolated liver microsome preparations.

[7] = system: rat carageenan footpad edema; assay: Rat carageenan footpad edema model; type: in vivo
Experimental: The first is the rat carageenan footpad model. Maximal edema is obtained in this model 3 hours after carageenan injection.

SMILES	IC50 [1] [µM]	IC50 [2] [µM]	concentration up to which COX-1 activity is not inhibited [3] [µM]	IC50 [4] [µM]	clearance half-life [5] [h]	half-life in plasma ([5]; po) [h]	oral bioavailability ([5]; po) [%]	half-life, rat liver microsomes [6] [h]	anti-inflammatory activity in rat footpad edema assay ([7]; following oral installation)	ED50 ([7]; rat carageenan footpad model (Example 14)) [mg/kg]
CCCCC#CCSc1ccccc1OC(=O)CF [F-APHS]	2.8	4	> 32	–	–	–	–	–	–	–
COc1ccc2c(c1)c(CC(=O)Nc1ccc(F)cc1)c(C)n2C(=O)c1ccc(Cl)cc1 [Compound 18, p-fluorophenyl derivative of indomethacin amide]	–	–	–	> 66	4	4	30	1.67	anti-inflammatory activity	0.25
